Measured values from PubChem BioAssay AID1411 (The Scripps Research Institute Molecular Screening Center, 2008).
Activity calls are given as the source filed them. The rule behind the calls is not given here.

Molecular target: Signal transducer and activator of transcription 1-alpha/beta (Homo sapiens) (UniProt P42224)
Experiment: STAT1 reporter inhibitors, potency curves, dose response, counter-screen for STAT3 inhibitor project, cell-based, NIH 3T3, luciferase reporter (AID 1411)
Conditions: NIH 3T3 fibroblasts, counterscreen

Chain of Signal transducer and activator of transcription 1-alpha/beta (Homo sapiens) (P42224 whole entry, looked up): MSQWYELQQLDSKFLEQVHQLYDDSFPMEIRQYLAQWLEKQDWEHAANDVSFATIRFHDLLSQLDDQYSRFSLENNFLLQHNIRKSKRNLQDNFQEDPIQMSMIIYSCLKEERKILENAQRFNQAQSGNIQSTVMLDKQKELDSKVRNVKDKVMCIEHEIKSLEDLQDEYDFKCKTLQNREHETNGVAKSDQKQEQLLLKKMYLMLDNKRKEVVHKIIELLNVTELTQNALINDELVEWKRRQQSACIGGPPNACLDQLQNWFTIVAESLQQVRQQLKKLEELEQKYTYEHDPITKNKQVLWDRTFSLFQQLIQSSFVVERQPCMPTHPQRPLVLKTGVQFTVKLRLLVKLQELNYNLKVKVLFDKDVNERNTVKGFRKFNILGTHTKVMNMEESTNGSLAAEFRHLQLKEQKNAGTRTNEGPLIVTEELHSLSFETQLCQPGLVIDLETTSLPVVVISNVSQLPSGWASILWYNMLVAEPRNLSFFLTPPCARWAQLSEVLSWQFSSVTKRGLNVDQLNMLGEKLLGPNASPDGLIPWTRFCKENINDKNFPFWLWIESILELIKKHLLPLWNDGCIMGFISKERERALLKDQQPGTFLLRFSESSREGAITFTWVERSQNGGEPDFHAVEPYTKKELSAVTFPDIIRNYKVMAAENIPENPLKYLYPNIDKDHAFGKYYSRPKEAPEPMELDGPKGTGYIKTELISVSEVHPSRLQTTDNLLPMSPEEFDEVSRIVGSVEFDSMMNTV

SMILES	IC50
O=C(Oc1ccccc1N1C(=O)C2CCCCC2C1=O)c1ccccc1 (configuration not stated)	> 55.7 µM (inactive)
CCOc1cc(C(=S)N2CCOCC2)ccc1OS(=O)(=O)c1ccc(NC(C)=O)cc1	> 55.7 µM (inactive)
C[C@H]1O[C@@H](O[C@H]2[C@@H](O)C[C@H](O[C@H]3[C@@H](O)C[C@H](O[C@H]4CC[C@@]5(C)[C@H](CC[C@@H]6[C@@H]5C[C@@H](O)[C@]5(C)[C@@H](C7=CC(=O)OC7)CC[C@]65O)C4)O[C@@H]3C)O[C@@H]2C)C[C@H](O)[C@@H]1O	> 55.7 µM (inactive)
CN(C)S(=O)(=O)c1ccc(C(=O)Nc2nc(-c3cccs3)cs2)cc1	> 55.7 µM (inactive)
Cc1ccc(Cl)cc1N1CCN(C(=O)COc2ccc(S(=O)(=O)NC(C)C)cc2)CC1	> 55.7 µM (inactive)
CC(=O)Nc1ccc(-c2csc(Nc3ccc(Cl)cn3)n2)cc1	> 55.7 µM (inactive)
CC1CCC2C(=O)N(c3ccccc3OC(=O)c3ccccc3)C(=O)C2C1 (configuration not stated)	> 55.7 µM (inactive)
COc1ccc(CC(=O)Nc2cccc(SC)c2)cc1OC	> 55.7 µM (inactive)
CCCCOc1ccc(C(=O)Nc2ccncc2)cc1	> 55.7 µM (inactive)
O=C(CSc1ccc2ccccc2c1)Nc1ccncc1	> 55.7 µM (inactive)
CCCOc1ccc(/C=N/NC(=S)Nc2ccccc2[N+](=O)[O-])c(O)c1	> 55.7 µM (inactive)
COc1ccc(C(=O)Nc2ccc3oc(Cc4ccc(Cl)cc4)nc3c2)cc1OC	> 55.7 µM (inactive)
CN1/C(=C\C(=O)C[n+]2ccc(C(=O)c3ccccc3)cc2)C(C)(C)c2ccccc21	> 55.7 µM (inactive)
CC1CCCCC1NS(=O)(=O)c1ccc(S(=O)(=O)NCc2ccncc2)cc1 (configuration not stated)	> 55.7 µM (inactive)
C[C@H]1O[C@@H](O[C@H]2[C@@H](O)C[C@H](O[C@H]3[C@@H](O)C[C@H](O[C@H]4CC[C@@]5(C)[C@H](CC[C@@H]6[C@@H]5CC[C@]5(C)[C@@H](C7=CC(=O)OC7)CC[C@]65O)C4)O[C@@H]3C)O[C@@H]2C)C[C@H](O)[C@@H]1O	> 55.7 µM (inactive)
Cc1ccc(-n2ncc3c(SCc4cccnc4)ncnc32)c(C)c1	> 55.7 µM (inactive)
CCC(C)NC(=S)Nc1ccc(C(=O)OC)cc1 (configuration not stated)	> 55.7 µM (inactive)
COc1ccc(C)cc1-n1nnnc1SCn1nnc2ccccc2c1=O	> 55.7 µM (inactive)
Cn1c(CN2CCCCC2)nc2cc(NC(=O)c3cccc(Br)c3)ccc21	> 55.7 µM (inactive)
NNC(=O)c1cccc(COc2ccccc2Br)c1	inactive
CCOC(=O)c1ccc(NC(=O)c2ccc(CN3CCOCC3)cc2)cc1	> 55.7 µM (inactive)
Cc1ccc(N2C(=O)c3ccccc3C2O)nc1 (configuration not stated)	inactive
COc1cc(OC)cc(C(=O)Nc2ccc(-c3nc4ccccc4o3)cc2)c1	> 55.7 µM (inactive)
O=C(Nc1ccc(Oc2ccccc2)cc1)c1cnc2n(c1=O)CCS2	> 55.7 µM (inactive)
O=C(Nc1ccc(Oc2ccccc2)cc1)C1CCN(c2c3c(nc4ncnn24)CCC3)CC1	> 55.7 µM (inactive)

SMILES	IC50
O=c1c2c(nc3n1CCCCC3)sc1c(O)cccc12	> 55.7 µM (inactive)
Cc1ccc2c(C)nc(Nc3nc(CSc4nc5ccccc5[nH]4)cc(=O)[nH]3)nc2c1	> 55.7 µM (inactive)
CN1/C(=C\C(=O)C[n+]2ccc3ccccc3c2)C(C)(C)c2ccccc21	> 55.7 µM (inactive)
Cc1cc(C)n(Cc2ccc(NC(=O)c3ccc(COc4ccccc4Br)cc3)cc2)n1	> 55.7 µM (inactive)
COc1ccccc1OCC(=O)c1[nH]c(C)c(C(C)=O)c1C	> 55.7 µM (inactive)
CCOc1ncccc1C(=O)OCC(=O)Nc1ccc(-c2nc3ccc(C)cc3s2)cc1	inactive
CC[n+]1ccccc1/C=C/c1ccc(N(C)C)cc1	> 55.7 µM (inactive)
COc1ccc(NS(=O)(=O)c2ccc(NC(=O)c3ccc(N(C)S(C)(=O)=O)cc3)cc2)cc1	> 55.7 µM (inactive)
O=C1C2C3c4ccccc4C(c4ccccc43)[C@@H]2c2nc3ccccc3n21 (some centres not stated)	> 55.7 µM (inactive)
O=C(Nc1ccn(Cc2ccccc2F)n1)c1ccc(COc2ccccc2Cl)cc1	> 55.7 µM (inactive)
CCCCCCCc1ccc(-c2ccc(O)cc2)nc1	> 55.7 µM (inactive)
O=C1C2C3c4ccccc4C(c4ccccc43)C2c2nc3ccccc3n21 (configuration not stated)	> 55.7 µM (inactive)
CC(=O)c1ccc(N=Nc2ccc(C)cc2)cc1	inactive
Nc1cc(-c2ccccc2)nn1Cc1ccc(Cl)cc1	> 55.7 µM (inactive)
O=C1c2ccc(Br)cc2C(=O)N1c1ccc(Cc2ccncc2)cc1	> 55.7 µM (inactive)
CC(C)Cn1c(N)c(C(=O)CSc2ccccc2)c(=O)n(C)c1=O	> 55.7 µM (inactive)
Cc1nc2ccccc2cc1OCc1ccccc1	> 55.7 µM (inactive)
O=C(COc1ccc2ccccc2c1)Nc1ccncc1	> 55.7 µM (inactive)
CC(=O)c1cn(CC(=O)Nc2ccccc2C)c2ccccc12	> 55.7 µM (inactive)
O=C(Nc1ccncc1)c1ccc(-c2ccccc2)cc1	> 55.7 µM (inactive)
CCN(CC)c1ccc(NC(=O)CN2C(=O)CSc3ncccc32)c(C)c1	> 55.7 µM (inactive)
NC(=O)C1CCN(c2ccc(S(=O)(=O)N3CCC(Cc4ccccc4)CC3)cn2)CC1	> 55.7 µM (inactive)
COc1ccc(-c2nn(C)c(=O)c3ccccc23)cc1NC(=O)COc1ccc(C)cc1	inactive
O=C(Nc1ccc(Cc2ccncc2)cc1)c1ccc(S(=O)(=O)N2CCOCC2)cc1	> 55.7 µM (inactive)
O=C(Nc1ccc(N2CCOCC2)nc1)c1ccc(C(F)(F)F)cc1	> 55.7 µM (inactive)

SMILES	IC50
Nc1cc(-c2ccc(Br)cc2)nn1Cc1ccccc1	> 55.7 µM (inactive)
CCc1c(C)c2ccc(OCC(=O)OC(C)C)c(C)c2oc1=O	> 55.7 µM (inactive)
CCC(C)(C)c1ccc(OCCCC[n+]2cccc(C)c2)c(C(C)(C)CC)c1	> 55.7 µM (inactive)
COc1ccc(Br)cc1/C(C)=N/NC1=NCCN1	> 55.7 µM (inactive)
COc1ccc2cc(-c3cc(C(=O)OCC(=O)Nc4c(C)n(C)n(-c5ccccc5)c4=O)c4ccccc4n3)ccc2c1	inactive
COc1cc(OC)cc(C(=O)Nc2nnc(NC(=S)Nc3ccccc3)s2)c1	> 55.7 µM (inactive)
Cc1ccc(-n2nnnc2SCn2nnc3ccccc3c2=O)c(C)c1	> 55.7 µM (inactive)
COC(=O)c1nn(-c2ccc3c(c2)CCN3C(C)=O)cc1O	9.87 µM
Cc1cc(OCC(=O)Nc2ccncc2)cc(C)c1Br	> 55.7 µM (inactive)
O=C(Nc1nccs1)c1ccc(S(=O)(=O)NCC2CCCCC2)cc1	> 55.7 µM (inactive)
O=C(Nc1cccc(O)c1)C(=O)Nc1ccccn1	inactive
Cc1csc(NC(=O)c2cc3c(s2)CCCC3)n1	inactive
Cc1nn2cc(-c3ncc(C(F)(F)F)cc3Cl)cnc2c1Br	inactive
O=C(Nc1ccn(Cc2ccccc2F)n1)c1ccc(COc2ccc(Br)cc2)cc1	> 55.7 µM (inactive)
COc1ccc2nc3c(cc2c1)c(NC(=O)c1cccs1)nn3CC(C)C	> 55.7 µM (inactive)
Clc1ccc(OCc2cc(-c3ccccc3)no2)c(Cl)c1	inactive
O=C(Oc1cccc(Nc2ncnc3ccccc23)c1)c1ccccc1Cl	> 55.7 µM (inactive)
COc1cccc(-c2cc(C(=O)Nc3cccc(O)c3)no2)c1	inactive
Cc1nc2sccn2c1-c1csc(NCc2ccccc2)n1	> 55.7 µM (inactive)
CC(=O)N1CCc2cc(S(=O)(=O)NC3CCCc4ccccc43)ccc21 (configuration not stated)	> 55.7 µM (inactive)
CCCNC(=O)c1ccc(-c2nc3ccccc3s2)s1	inactive
O=C(NC1CC1)c1cc2c(s1)-c1ccccc1OC2	> 55.7 µM (inactive)
c1ccc(CC2CCN(c3ncnc4sccc34)CC2)cc1	> 55.7 µM (inactive)
Cc1cccc(-c2nc3cc(NC(=O)C4CCCO4)ccc3o2)c1 (configuration not stated)	inactive
Clc1ccc2ncc(-c3nnnn3-c3ccccc3)c(-c3ccccc3)c2c1	> 55.7 µM (inactive)

SMILES	IC50
COc1ccc(/C=N/NC(=S)Nc2ccccc2[N+](=O)[O-])cc1O	> 55.7 µM (inactive)
Cc1ccccc1OCCCCn1cnc2ccccc21	> 55.7 µM (inactive)
O=C(Nc1ccncc1)c1ccc2c(c1)C(=O)N(C1CCCCC1)C2=O	> 55.7 µM (inactive)
O=S(=O)(c1ccc2c(c1)OCCO2)N1CCC(c2nc3ccccc3s2)CC1	> 55.7 µM (inactive)
Cc1ccsc1/C=C1\CCc2ccccc2C1=O	7.89 µM
CCOC(=O)c1oc2ccc(S(=O)(=O)Nc3ccc4c(c3)n(C)c(=O)n4C)cc2c1C	inactive
c1ccc(C(Cc2nc(-c3ccncc3)no2)c2ccccc2)cc1	> 55.7 µM (inactive)
Clc1ccc(CSc2nnc(Cn3cnc4ccccc43)o2)cc1	> 55.7 µM (inactive)
Cc1cc(NC(=O)c2cc(-c3cccs3)on2)nn1Cc1ccc(Cl)cc1	> 55.7 µM (inactive)
COC(=O)Oc1ccc(/C=N/NC(=O)CSCc2ccccc2Br)cc1OC	> 55.7 µM (inactive)
Cc1nc2ccccc2cc1OCc1ccc(F)cc1	> 55.7 µM (inactive)
CCOC(=O)C1=C(Cc2ccc(C)cc2)C(=O)c2ccccc2C1=O	> 55.7 µM (inactive)
COC(=O)c1cccc(NC(=O)CSc2nc3cccnc3n2C)c1	> 55.7 µM (inactive)
Cc1cccc(C)c1NC(=O)N1CCN(c2nc3ccccc3s2)CC1	> 55.7 µM (inactive)
CNC(=O)Oc1cccc(-c2cn3cc(Cl)ccc3n2)c1	inactive
Oc1ccc(-c2n[nH]c(=S)n2-c2ccc3c(c2)OCCO3)c(O)c1	> 55.7 µM (inactive)
CCCOc1ccc(CSc2nc3ccccc3[nH]2)cc1	> 55.7 µM (inactive)
CSc1ccc(NC(=O)N2CCN(c3nc4ccccc4s3)CC2)cc1	> 55.7 µM (inactive)
O=C(C1CCN(c2nc3ccc(Br)cc3s2)CC1)N1CCC2(CC1)OCCO2	> 55.7 µM (inactive)
CCOC(=O)c1sc2nc(CC(=O)OC)nc(NCc3ccc(Cl)cc3)c2c1C	> 55.7 µM (inactive)
Nc1c(C(=O)NC2CCCCC2)nsc1C(=O)OCC(=O)NC1CCCCC1	> 55.7 µM (inactive)
Cc1cc(OCC(=O)Nc2ccncc2)ccc1Br	> 55.7 µM (inactive)
